{"source": "patent US7939534B2", "about": "“Certain chemical entities, compositions, and methods” (Cytokinetics, Inc., priority 2006, dated 2011)"}
{"target": "T1, chicken gizzard smooth muscle myosin subfragment-1 chemically crosslinked to either cardiac or skeletal actin (Gallus gallus, UniProt P10587)", "T1 construct": "chicken gizzard smooth muscle myosin subfragment-1; from tissue; host or cells: chicken gizzard", "test": "Dose dependent smooth muscle myosin ATPase modulation (pyruvate kinase/horseradish peroxidase/pyruvate oxidase-coupled ATPase assay)", "type": "biochemical", "details": "read-out: IC50 Arithmetic Mean", "how_it_was_run": "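Chicken gizzard smooth muscle myosin S1 crosslinked (EDC/NHS) to cardiac or skeletal actin, concentration titrated to a set ATPase rate. Pyruvate kinase/pyruvate oxidase/HRP-coupled assay, 0.15 mM ATP, 12 mM K-PIPES pH 7.00, 100 mM KCl, amplex red fluorescence; IC50 from 4-parameter fit.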", "units": {"IC50": "µM"}}
{"compound": "NCc1ncccc1CNC(=O)c1ccc(N2CCCC2)nc1NCCc1cccc(F)c1", "note": "[Compound 41, N-{[2-(aminomethyl)(3-pyridyl)]methyl}(2-{[2-(3-fluorophenyl)ethyl]amino}-6-pyrrolidinyl(3-pyridyl))carboxamide]", "IC50": 0.0297}
{"compound": "N-{[(2R)-1-(2-aminoacetyl)pyrrolidin-2-yl]methyl}(5-fluoro-2-{[2-(3-fluorophenyl)ethyl]amino}-6-pyrrolidinyl(3-pyridyl))carboxamide [Compound 76]", "IC50": 0.212}
{"compound": "NCc1ncccc1CNC(=O)c1cc(F)c(C2CC2)nc1NCCc1cccc(F)c1", "note": "[Compound 81, N-{[2-(aminomethyl)(3-pyridyl)]methyl}(6-cyclopropyl-5-fluoro-2-{[2-(3-fluorophenyl)ethyl]amino}(3-pyridyl))carboxamide]", "IC50": 1.32}
{"compound": "O=C(NCc1cccnc1)c1ccc(C2=CCNCC2)nc1NCCc1cccc(F)c1", "note": "[Compound 57, (2-{[2-(3-fluorophenyl)ethyl]amino}-6-(4-1,2,5,6-tetrahydropyridyl)(3-pyridyl))-N-(3-pyridylmethyl)carboxamide]", "IC50": 10.5}
{"compound": "O=C(NCc1cccnc1)c1ccc(N2CCCC2)nc1NCCc1ccccn1", "note": "[Compound 33, {2-[(2-(2-pyridyl)ethyl)amino]-6-pyrrolidinyl(3-pyridyl)}-N-(3-pyridylmethyl)carboxamide]", "IC50": 32.8}
{"compound": "NCc1ncccc1CNC(=O)c1cc(F)c(N2CC[C@@H](O)C2)nc1NCCc1cccc(F)c1", "note": "[Compound 55, (6-((3R)-3-hydroxypyrrolidinyl)-5-fluoro-2-{[2-(3-fluorophenyl)ethyl]amino}(3-pyridyl))-N-{[2-(aminomethyl)(3-pyridyl)]methyl}carboxamide]", "IC50": 0.125}
{"compound": "Nc1ccc(CNC(=O)c2ccc(N3CCCC3)nc2NCCc2cccc(F)c2)cn1", "note": "[Compound 12, N-[(6-amino(3-pyridyl))methyl](2-{[2-(3-fluorophenyl)ethyl]amino}-6-pyrrolidinyl(3-pyridyl))carboxamide]", "IC50": 0.243}
{"compound": "O=C(NCc1cccnc1)c1ccc(C2=NCCN2)nc1NCCc1cccc(F)c1", "note": "[Compound 73, (2-{[2-(3-fluorophenyl)ethyl]amino}-6-(2-imidazolin-2-yl)(3-pyridyl))-N-(3-pyridylmethyl)carboxamide]", "IC50": 56.4}
{"compound": "CC(C)(C)OC(=O)NCC(=O)N1CCC[C@@H]1CNC(=O)c1cc(F)c(N2CCCC2)nc1NCCc1cccc(F)c1", "note": "[Compound 77, N-[((2R)-1-{2-[(tert-butoxy)carbonylamino]acetyl}pyrrolidin-2-yl)methyl](5-fluoro-2-{[2-(3-fluorophenyl)ethyl]amino}-6-pyrrolidinyl(3-pyridyl))carboxamide]", "IC50": 13.6}
{"compound": "O=C(NCc1cccnc1)c1ccc(C2=NCCO2)nc1NCCc1cccc(F)c1", "note": "[Compound 35, (2-{[2-(3-fluorophenyl)ethyl]amino}-6-(1,3-oxazolin-2-yl)(3-pyridyl))-N-(3-pyridylmethyl)carboxamide]", "IC50": 1.5}
{"compound": "O=C(NCc1cccnc1)c1ccc(N2CC[C@H](CO)C2)nc1NCCc1cccc(F)c1", "note": "[Compound 27, (6-[(3S)-3-(hydroxymethyl)pyrrolidinyl]-2-{[2-(3-fluorophenyl)ethyl]amino}(3-pyridyl))-N-(3-pyridylmethyl)carboxamide]", "IC50": 0.465}
{"compound": "CNC(=O)CNC(=O)c1ccc(N2CCCCC2)nc1NCCc1cccc(F)c1", "note": "[Compound 106, 2-[(2-{[2-(3-fluorophenyl)ethyl]amino}-6-piperidyl(3-pyridyl))carbonylamino]-N-methylacetamide]", "IC50": 1.12}
{"compound": "NCc1cccc(CNC(=O)c2ccc(N3CCCC3)nc2NCCc2cccc(F)c2)n1", "note": "[Compound 98, N-{[6-(aminomethyl)(2-pyridyl)]methyl}(2-{[2-(3-fluorophenyl)ethyl]amino}-6-pyrrolidinyl(3-pyridyl))carboxamide]", "IC50": 0.213}
{"compound": "CC(C)(C)OC(=O)NC1CCN(c2ccc(C(=O)NCc3cccnc3)c(NCCc3cccc(F)c3)n2)CC1", "note": "[Compound 110, (tert-butoxy)-N-[1-(6-{[2-(3-fluorophenyl)ethyl]amino}-5-[N-(3-pyridylmethyl)carbamoyl](2-pyridyl))(4-piperidyl)]carboxamide]", "IC50": 16.4}
{"compound": "CC(C)(C)OC(=O)NCc1ncccc1CNC(=O)c1cc(F)c(N2CC[C@@H](F)C2)nc1NCCc1cccc(F)c1", "note": "[Compound 65, (6-((3R)-3-fluoropyrrolidinyl)-5-fluoro-2-{[2-(3-fluorophenyl)ethyl]amino}(3-pyridyl))-N-[(2-{[(tert-butoxy)carbonylamino]methyl}(3-pyridyl))methyl]carboxamide]", "IC50": 8.24}
{"compound": "CNC(=O)CNC(=O)c1ccc(N2CCC(F)(F)C2)nc1NCCc1cccc(F)c1", "note": "[Compound 97, 2-[(6-(3,3-difluoropyrrolidinyl)-2-{[2-(3-fluorophenyl)ethyl]amino}(3-pyridyl))carbonylamino]-N-methylacetamide]", "IC50": 0.931}
{"compound": "C[C@H](CNC(=O)c1cc(F)c(N2CCCC2)nc1NCCc1cccc(F)c1)NC(=O)CN", "note": "[Compound 82, N-{(1R)-2-[(5-fluoro-2-{[2-(3-fluorophenyl)ethyl]amino}-6-pyrrolidinyl(3-pyridyl))carbonylamino]-isopropyl}-2-aminoacetamide]", "IC50": 0.197}
{"compound": "NCc1ncccc1CNC(=O)c1ccc(N2CC[C@@H](O)C2)nc1NCCc1cccc(F)c1", "note": "[Compound 36, (6-((3R)-3-hydroxypyrrolidinyl)-2-{[2-(3-fluorophenyl)ethyl]amino}(3-pyridyl))-N-{[2-(aminomethyl)(3-pyridyl)]methyl}carboxamide]", "IC50": 0.327}
{"compound": "O=C(NCc1cccnc1)c1ccc(N2CCCCC2)nc1NCCc1ccccn1", "note": "[Compound 45, {6-piperidyl-2-[(2-(2-pyridyl)ethyl)amino](3-pyridyl)}-N-(3-pyridylmethyl)carboxamide]", "IC50": 13.2}
{"compound": "O=C(NCc1cccnc1)c1ccc(N2CCNCC2=O)nc1NCCc1cccc(F)c1", "note": "[Compound 25, (2-{[2-(3-fluorophenyl)ethyl]amino}-6-(2-oxopiperazinyl)(3-pyridyl))-N-(3-pyridylmethyl)carboxamide]", "IC50": 70.8}
{"compound": "O=C(NCc1cccnc1)c1ccc(N2CCC2)nc1NCCc1cccc(F)c1", "note": "[Compound 32, (6-azetidinyl-2-{[2-(3-fluorophenyl)ethyl]amino}(3-pyridyl))-N-(3-pyridylmethyl)carboxamide]", "IC50": 1.17}
{"compound": "O=C(NCc1cccnc1)c1ccc(N2CC[C@H](F)C2)nc1NCCc1cccc(F)c1", "note": "[Compound 113, (6-((3S)-3-fluoropyrrolidinyl)-2-{[2-(3-fluorophenyl)ethyl]amino}(3-pyridyl))-N-(3-pyridylmethyl)carboxamide]", "IC50": 0.431}
{"compound": "N-[((2R)-1-{4-[(tert-butoxy)carbonylamino]butanoyl}pyrrolidin-2-yl)methyl](5-fluoro-2-{[2-(3-fluorophenyl)ethyl]amino}-6-pyrrolidinyl(3-pyridyl))carboxamide [Compound 75]", "IC50": 8.55}
{"compound": "O=C(NC[C@H]1CCCN1)c1cc(F)c(N2CCCC2)nc1NCCc1cccc(F)c1", "note": "[Compound 79, N-[((2R)pyrrolidin-2-yl)methyl](5-fluoro-2-{[2-(3-fluorophenyl)ethyl]amino}-6-pyrrolidinyl(3-pyridyl))carboxamide]", "IC50": 1.8}
{"compound": "N#Cc1cc(C(=O)NCc2cccnc2)c(NCCc2cccc(F)c2)nc1N1CCCC1", "note": "[Compound 49, (5-cyano-2-{[2-(3-fluorophenyl)ethyl]amino}-6-pyrrolidinyl(3-pyridyl))-N-(3-pyridylmethyl)carboxamide]", "IC50": 0.165}
{"compound": "O=C(NCc1cccnc1)c1ccc(N2CCCC(O)C2)nc1NCCc1cccc(F)c1", "note": "(stereo in doubt) [Compound 117, (6-((3S)-3-hydroxypiperidyl)-2-{[2-(3-fluorophenyl)ethyl]amino}(3-pyridyl))-N-(3-pyridylmethyl)carboxamide]", "IC50": 0.515}
{"compound": "O=C(O)CC1CCN(c2ccc(C(=O)NCc3cccnc3)c(NCCc3cccc(F)c3)n2)C1", "note": "(stereo not drawn) [Compound 95, 2-[1-(6-{[2-(3-fluorophenyl)ethyl]amino}-5-[N-(3-pyridylmethyl)carbamoyl]-2-pyridyl)pyrrolidin-3-yl]acetic acid]", "IC50": 5.6}
{"compound": "CNC(=O)CNC(=O)c1ccc(N2CCC(F)C2)nc1NCCc1cccc(F)c1", "note": "(stereo in doubt) [Compound 93, 2-[(6-((3S)-3-fluoropyrrolidinyl)-2-{[2-(3-fluorophenyl)ethyl]amino}(3-pyridyl))carbonylamino]-N-methylacetamide]", "IC50": 1.06}
{"compound": "CCOC(=O)C1CCN(c2ccc(C(=O)NCc3cccnc3)c(NCCc3cccc(F)c3)n2)CC1", "note": "[Compound 112, ethyl 1-(6-{[2-(3-fluorophenyl)ethyl]amino}-5-[N-(3-pyridylmethyl)carbamoyl]-2-pyridyl)piperidine-4-carboxylate]", "IC50": 1.56}
{"compound": "O=C(NCc1cccnc1)c1ccc(N2CCC(CCO)CC2)nc1NCCc1cccc(F)c1", "note": "[Compound 23, (2-{[2-(3-fluorophenyl)ethyl]amino}-6-[4-(2-hydroxyethyl)piperidyl](3-pyridyl))-N-(3-pyridylmethyl)carboxamide]", "IC50": 0.471}
{"compound": "CNC(=O)C1CCN(c2ccc(C(=O)NCc3cccnc3)c(NCCc3cccc(F)c3)n2)CC1", "note": "[Compound 114, (2-{[2-(3-fluorophenyl)ethyl]amino}-6-[4-(N-methylcarbamoyl)piperidyl](3-pyridyl))-N-(3-pyridylmethyl)carboxamide]", "IC50": 11}
{"compound": "COC(=O)N[C@@H]1CCN(c2ccc(C(=O)NCc3cccnc3)c(NCCc3cccc(F)c3)n2)C1", "note": "[Compound 44, N-[(3R)-1-(6-{[2-(3-fluorophenyl)ethyl]amino}-5-[N-(3-pyridylmethyl)carbamoyl](2-pyridyl))pyrrolidin-3-yl]methoxycarboxamide]", "IC50": 4.5}
{"compound": "CN(C)C(=O)N1CC=C(c2ccc(C(=O)NCc3cccnc3)c(NCCc3cccc(F)c3)n2)CC1", "note": "[Compound 69, (6-[1-(N,N-dimethylcarbamoyl)(4-1,2,5,6-tetrahydropyridyl)]-2-{[2-(3-fluorophenyl)ethyl]amino}(3-pyridyl))-N-(3-pyridylmethyl)carboxamide]", "IC50": 0.452}
